Test results published in patent publication US6268478A, “Intracellular vitamin D binding protein” (Cedars-Sinai Medical Center, priority 1997, dated 2001).

Legend:
IDBP [1] = biological target: T1, IDBP (Saguinus oedipus, UniProt Q9N1U2); experiment: 25-OHD3 binding activity of cells transiently transfected with plasmid expressing the IDBP coding region; design: species or system Callithrix jacchus (common marmoset)
Source text: The coding region of IDBP shown in FIG. 3 was cloned into pcDNA3.1 (Invitrogen). […] Control plasmid was the pcDNA3.1 vector without cloned insert.

[2] = biological target: T2, human heat shock protein-70 (hsp70) (Homo sapiens, UniProt P0DMV8); experiment: Competitive ligand binding of [3H]25-hydroxyvitamin D3 to recombinant inducibly-expressed hsp70
T2 construct: purchased StressGen, Victoria, B.C., Canada
Experimental: (§1) Ligand Binding Analyses. The ability of the unfractionated 100,000×g supernatant extracts of B95-8 cells and individual column fractions of chromatographically-purified material to bind [^3 H]25-OHD3 in the presence or absence of increasing concentrations of radioinert compounds (see Table I) was performed by competitive protein binding assay as previously described in Gacad et al. Bone Min. Res. 8:27-35 (1993).
(§2) Briefly, unfractionated or post-FPLC fractions were incubated in ETD-0.5 M NaCl overnight at 4° C. with 4 nM [3H]25-OHD3 in the presence or absence of 1-100 nM unlabeled competitive ligand. Protein-bound [^3 H]25-OHD3 was separated from unbound sterol by incubation with dextran-coated charcoal. Specifically-bound 25-OHD3 was determined by subtracting the mean of duplicate determinations of binding in the presence of 100 nM radioinert competitive ligand from the mean of determinations of binding in the absence of added competitive ligand. Specific binding of 17β-[^3 H]estradiol as well as [^3 H]25-OHD3 to IDBP(s) was also determined in individual fractions eluting from hydroxyapatite chromatography. The binding assay conditions were the same as those stated above except that specific binding was determined in ETD-0.3 M Na2 HPO4 buffer (pH 6.8).
Inducibly-expressed, recombinant human heat shock protein-70 (hsp70) was purchased from StressGen, Victoria, B.C., Canada. […]

IDBP(s) = experiment: Specific binding of [3H]25-OHD3 and [3H]17β-estradiol in post-hydroxyapatite peak I and peak II fractions of B95-8 extract; design: species or system Callithrix jacchus (common marmoset); settings: both peak I and peak II from hydroxyapatite chromatography; tracer ± 100 nM radioinert ligand
Experimental: as §2
On the basis of protein recovery, enrichment of bioactivity, ease of use, and resin available for FPLC and/or HPLC applications, three chromatographic supports, one each from the three different kinds of packing materials evaluated, were selected for serial chromatographic purification of IDBP(s): BPS-DE cellulose for anion exchange chromatography, phenyl sepharose (mid sub) for hydrophobic interaction chromatography, and HTP-hydroxyapatite for separation of proteins by their surface charge. […]

IDBP [3] = biological target: T1, IDBP; experiment: Competitive displacement of [3H]25-OHD3 from IDBP in unfractionated 100,000×g supernatant extracts of B95-8 cells (competitive protein binding assay, dextran-coated charcoal); design: post-nuclear 100,000xg supernatant of B95-8 marmoset lymphoblasts and partly purified column fractions; species or system Callithrix jacchus (common marmoset)
Source text: Culture and Extraction of B95-8 Cells. The B-lymphoblastoid cell line B95-8 was obtained from the American Type Culture Collection (ATCC, Manassas, Va.). This cell line was established by EBV transformation of blood leukocytes from the vitamin D-resistant new world primate, Callithrix jacchus (common marmoset). The cell line was maintained in RPMI-1640 medium (Irvine Scientific, Irvine, Calif.) routinely supplemented with 10% fetal calf serum (FCS; Gemini BioProducts, Calabasas, Calif.), 100 units/ml penicillin, 100 μg/ml streptomycin, 2 mM L-glutamine (both from Gibco-BRL, Grand Island, N.Y.) in an atmosphere of 95% air-5% CO2.
Confluent cultures were harvested by agitation to dislodge clumps of lymphoblasts that were weakly adherent to the plastic flask. Harvested cells were pelleted and washed twice in ice cold phosphate-buffered saline (PBS; 20 mM Na2 HPO4 and 150 mM NaCl, pH 7.2). The pelleted cells were then resuspended in ETD buffer (1 mM EDTA, 10 mM Tris-HCl, 5 mM dithiothreitol, pH 7.4) containing 1 mM phenylmethylsulfonylflouride and homogenized by Polytron on ice in five 15-second bursts. Nuclei with associated nuclear steroid receptor proteins, were pelleted at 4,000×g for 30 minutes at 4° C. The post-nuclear supernatant of this spin was then subjected to high-speed centrifugation at 100,000×g for 1 hour at 4° C. The resulting "100,000×g supernatant" was either aliquoted and stored at […] for further study, used in competitive ligand binding analyses, or subjected to further purification as described below in Example II.
as §1, with “fractions of chromatographically-purified material to bind [^3 H]25-OHD3 in the presence or absence” left out
[…] […] […] […] The binding assay conditions were the same as those stated above except that specific binding was determined in ETD-0.3 M Na2 HPO4 buffer (pH 6.8).

[4] = system: ATP binding domain of IDBP; experiment: 25-OHD3 binding activity of cells transfected with construct encoding the IDBP ATP binding domain; design: species or system Callithrix jacchus (common marmoset); settings: COS-7 and OMK gibbon cells transfected with ATP binding domain construct
Source text: This experiment was repeated with expression plasmids which encode different fragments of IDBP. The coding region of the cDNA contains a convenient Eco RI restriction site which divides the region encoding the deduced ATP binding from the deduced peptide binding domain and variable domain.

T1 sequence (Q9N1U2 whole entry): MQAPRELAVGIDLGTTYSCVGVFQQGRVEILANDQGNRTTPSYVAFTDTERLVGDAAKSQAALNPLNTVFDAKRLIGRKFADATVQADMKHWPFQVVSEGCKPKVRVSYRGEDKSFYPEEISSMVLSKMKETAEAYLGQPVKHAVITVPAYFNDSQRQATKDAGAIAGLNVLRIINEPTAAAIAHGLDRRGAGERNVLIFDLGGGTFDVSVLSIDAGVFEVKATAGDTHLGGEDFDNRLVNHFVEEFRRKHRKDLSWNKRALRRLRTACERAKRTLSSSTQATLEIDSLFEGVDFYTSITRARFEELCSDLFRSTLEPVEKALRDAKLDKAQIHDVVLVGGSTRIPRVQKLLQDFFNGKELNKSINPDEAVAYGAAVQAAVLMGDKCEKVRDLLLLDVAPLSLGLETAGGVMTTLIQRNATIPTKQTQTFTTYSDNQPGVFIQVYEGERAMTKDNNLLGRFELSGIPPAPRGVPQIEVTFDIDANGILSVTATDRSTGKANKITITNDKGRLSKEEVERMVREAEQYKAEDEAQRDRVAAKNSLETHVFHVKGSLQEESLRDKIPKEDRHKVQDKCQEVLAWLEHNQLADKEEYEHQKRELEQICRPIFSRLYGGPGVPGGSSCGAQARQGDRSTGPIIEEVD
T2 sequence (P0DMV8 whole entry): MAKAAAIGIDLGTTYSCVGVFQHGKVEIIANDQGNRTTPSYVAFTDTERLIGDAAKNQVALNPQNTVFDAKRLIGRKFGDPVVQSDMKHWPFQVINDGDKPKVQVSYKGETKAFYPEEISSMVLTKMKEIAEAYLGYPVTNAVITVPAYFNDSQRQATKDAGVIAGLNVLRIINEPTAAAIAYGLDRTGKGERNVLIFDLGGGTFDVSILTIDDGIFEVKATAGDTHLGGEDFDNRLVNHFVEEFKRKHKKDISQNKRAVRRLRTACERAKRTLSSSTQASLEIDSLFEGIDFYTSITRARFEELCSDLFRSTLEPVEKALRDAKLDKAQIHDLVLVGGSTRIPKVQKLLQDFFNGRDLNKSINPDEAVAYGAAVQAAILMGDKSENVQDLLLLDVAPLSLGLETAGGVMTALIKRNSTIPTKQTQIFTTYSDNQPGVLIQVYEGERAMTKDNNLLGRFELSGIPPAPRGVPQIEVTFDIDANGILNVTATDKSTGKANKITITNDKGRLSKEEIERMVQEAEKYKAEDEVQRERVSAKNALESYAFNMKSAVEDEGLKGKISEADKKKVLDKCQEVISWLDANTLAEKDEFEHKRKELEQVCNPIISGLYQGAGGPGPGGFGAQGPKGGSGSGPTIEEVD

Row | 25-OHD3 binding activity (IDBP [1]; Cos-7 cells transfected with IDBP coding region in pcDNA3.1) | 25-OHD3 binding activity (IDBP [1]; OMK gibbon cells transfected with IDBP coding region in pcDNA3.1) | IC (maximal displacement) ([2]; inducibly expressed hsp70, read-out: concentration of radioinert ligand required to achieve maximal displacement of [3H]25-hydroxyvitamin D3) [µM] | specific binding activity for 25-OHD3 relative to that of 17β-estradiol (IDBP(s)) | IC (maximal displacement) (IDBP [3]; IDBP, read-out: concentration of radioinert ligand required to achieve maximal displacement of [3H]25-hydroxyvitamin D3) [µM] | Compound | ability to competitively displace [3H]25-OHD3 binding (FIG. 1A) (IDBP [3]; 100 nM competitor, 2 nM [3H]25-OHD3) | 25-OHD3 binding activity [4] | specific [3H]25-OHD3 binding activity of hsp70 ([2]; recombinant human inducibly-expressed hsp70)
1 | approximately 0.8 fmol/μg protein | approximately 1.0 fmol/μg protein | 0.05 to 0.1 | approximately 2 fold | 0.05 to 0.1 | C=C1CC[C@H](O)C/C1=C/C=C1\CCC[C@]2(C)[C@@H]([C@H](C)CCCC(C)(C)O)CC[C@@H]12 [25-OHD3, 25-hydroxy vitamin D3] | roughly equivalent in their ability to competitively inhibit | exhibited enhanced 25-OHD3 binding activity | –
2 | – | – | – | – | – | [^3 H]25-hydroxy vitamin D3 [[^3 H]25-OHD3] | – | – | exhibited specific [^3 H]25-OHD3 binding activity
